Our source for the IC50 values is BindingDB's records for patent US20240368194 (Shanghai Leadingtac Pharmaceutical, 2024).

Molecules are shown by their SMILES.

The test deals with T1, Interleukin-1 receptor-associated kinase 4 (Homo sapiens, UniProt Q9NWZ3).
T1 sequence (Q9NWZ3 whole entry): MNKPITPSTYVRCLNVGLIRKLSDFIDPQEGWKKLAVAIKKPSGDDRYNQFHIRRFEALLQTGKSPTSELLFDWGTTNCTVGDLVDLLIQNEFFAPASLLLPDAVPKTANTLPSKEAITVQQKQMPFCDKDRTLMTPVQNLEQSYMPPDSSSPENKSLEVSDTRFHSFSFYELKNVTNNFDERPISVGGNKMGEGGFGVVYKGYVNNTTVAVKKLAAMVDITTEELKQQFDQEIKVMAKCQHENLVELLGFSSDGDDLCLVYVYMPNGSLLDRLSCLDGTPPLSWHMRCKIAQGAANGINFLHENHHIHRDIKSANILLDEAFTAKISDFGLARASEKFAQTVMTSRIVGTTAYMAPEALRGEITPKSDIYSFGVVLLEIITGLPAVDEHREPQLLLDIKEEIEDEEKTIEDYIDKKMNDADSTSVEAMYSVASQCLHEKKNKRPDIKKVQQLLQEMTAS
Briefly: 1RAK4 Kinase Activity Assay. The procedure: Then 2.5 nM 1RAK4 kinase (Carna), 1 μM biotinylated polypeptide substrate (Cisbio) and 7 μM adenosine triphosphate (Sigma-Aldrich) were sequentially added, and the mixtures were incubated at 37° C. for 120 min. Subsequently, an anti-phosphoserine/threonine antibody (Cisbio) conjugated with a europium element compound and conjugated modified XL665 streptavidin (Cisbio) were added to the reaction systems to stop the reactions. After 1 h of incubation at room temperature, the fluorescence intensity of each well was measured at the excitation wavelength of 337 nm and the emission wavelengths of 620 nm and 665 nm with a microplate reader EnVision (PerkinElmer) in the HTRF mode, and Ratio values were calculated using the formula Ratio=(665 nm/620 nm)×[…]. The inhibition rate of the compound at each concentration was calculated by comparing the fluorescence intensity ratio with that of the control group.
For orientation: IC50 means the concentration that gives 50% inhibition. The compound `O=C1CCN(c2cc(C(=O)N3CCC4(CCN(C[C@H]5CC[C@H](n6cc(NC(=O)c7cnn8ccc(N9C[C@H]%10C[C@@H]9CO%10)nc78)c(Cl)n6)CC5)CC4)CC3)ccc2Cl)C(=O)N1` [US20240368194, Example 5] yielded an IC50 of 360 nM.

With `Cc1nn([C@H]2CC[C@H](CN3CCC4(CC3)CCN(C(=O)c3ccc(Cl)c(N5CCC(=O)NC5=O)c3)CC4)CC2)cc1NC(=O)c1cnn2ccc(N3C[C@H]4C[C@@H]3CO4)nc12` [US20240368194, Example 7], the IC50 worked out at 313 nM.

On to `CN(CCC1CCN(C(=O)c2ccc(Cl)c(N3CCC(=O)NC3=O)c2)CC1)C[C@H]1CC[C@H](n2cc(NC(=O)c3cnn4ccc(N5C[C@H]6C[C@@H]5CO6)nc34)c(C(F)F)n2)CC1` [US20240368194, Example 11], for which half-maximal inhibition (IC50) was put at 18.5 nM.

For the compound `O=C1CCC(c2ccc(C(=O)N3CCC4(CCC(CN5CCC(n6cc(NC(=O)c7cnn8ccc(N9CCOCC9)nc78)c(C(F)F)n6)CC5)CC4)CC3)cc2)C(=O)N1` (stereo not given) [US20240368194, Example 26], it took 14.3 nM to reach half-maximal inhibition (IC50).

In turn, `CN(CCC1CCN(C(=O)c2ccc(OC(F)(F)F)c(N3CCC(=O)NC3=O)c2)CC1)C[C@H]1CC[C@H](n2cc(NC(=O)c3cnn4ccc(N5C[C@H]6C[C@@H]5CO6)nc34)c(C(F)F)n2)CC1` [US20240368194, Example 33] showed an IC50 of 23.9 nM.

Compound `O=C1CCN(c2cc(C#CCOC3CCN(C[C@H]4CC[C@H](n5cc(NC(=O)c6cnn7ccc(N8CCOCC8)nc67)c(C(F)F)n5)CC4)CC3)ccc2Cl)C(=O)N1` [US20240368194, Example 38] gave an IC50 of 20 nM.

The compound `CN1CCN(c2ccn3ncc(C(=O)Nc4cn([C@H]5CC[C@H](CN(C)CCC6CCN(C(=O)c7ccc(F)c(N8CCC(=O)NC8=O)c7)CC6)CC5)nc4C(F)F)c3n2)CC1` [US20240368194, Example 41] returned an IC50 of 25.5 nM.

In the case of `CN(CC[C@H]1CC[C@H](n2cc(NC(=O)c3cnn4ccc(N5C[C@H]6C[C@@H]5CO6)nc34)c(C(F)F)n2)CC1)CC1CCN(C(=O)c2ccc(Cl)c(N3CCC(=O)NC3=O)c2)CC1` [US20240368194, Example 46], the IC50 was found to be 278 nM.

On to `COc1ccc(C(=O)N2CCC3(CCC(N(C)C[C@H]4CC[C@H](n5cc(NC(=O)c6cnn7ccc(N8CCOCC8)nc67)c(C(F)F)n5)CC4)CC3)CC2)cc1N1CCC(=O)NC1=O` [US20240368194, Example 59], for which the IC50 was 8.71 nM.

In the case of `CN(CCC1CCN(C(=O)c2ccc(Cl)c(N3CCC(=O)NC3=O)c2)CC1)C[C@]1(O)CC[C@@H](n2cc(NC(=O)c3cnn4ccc(N5C[C@H]6C[C@@H]5CO6)nc34)c(C(F)F)n2)CC1` [US20240368194, Example 65], the IC50 was found to be 52.1 nM.
